Data published in patent US20260191961A1, “RUTHENIUM (II) POLYPYRIDYL COMPLEX AS A PHOTO-SENSITISER IN PHOTODYNAMIC THERAPY, AND A PROCEDURE FOR MAKING SAID RUTHENIUM (II) POLYPYRIDYL COMPLEX” (UNIVERSITÀ DEGLI STUDI DI FIRENZE, priority 2022, published 2026).
Like-named read-outs stand apart in the source and are kept apart here.

How the values were obtained:
[1] = tested on: squamous cell carcinoma of the epidermis (A431); assay: In-vitro photo-cytotoxicity, MTT assay, A431; assay type: cell-based; conditions: 1 h incubation, MTT after 24 h, read-out: IC50 (maximum response set to zero)
Procedure: (§1) The activity of compound IIIa as a photosensitising agent in photodynamic therapy was evaluated on two in-vitro tumour models: squamous cell carcinoma of the epidermis (A431) and glioblastoma multiforme (U87MG). Cells cultured on 96-well plates were treated with increasing concentrations of IIIa dispersed in the culture medium for one hour. At the end of the incubation, the medium was replaced, and the cells were exposed to LED light (λmax 462 nm) for 30 minutes, or were left in the dark during the same time. At the end of the 30 minutes, the cells were placed back and maintained in the incubator for 24 hours before measuring the metabolic activity by MTT assay. Six replicates were used for each condition, and cell viability of 100% was calculated from the response of untreated cells not exposed to LED light. […] The high specificity of IIIa, defined as toxicity only when exposed to light, is evident from the difference in IC50 values, which indicate a potent cytotoxic activity in the presence of light irradiation and substantial inertia in the dark at the concentrations tested, as shown in Table 3.
The activity of compound IIIb as a photosensitising agent in photodynamic therapy was evaluated on an in vitro tumour model, i.e., squamous cell carcinoma of the epidermis (A431), following the same protocol as compound IIIa. […] The high specificity of IIIb, defined as toxicity only when exposed to light, is evident from the difference in IC50 values, which indicate a potent cytotoxic activity in the presence of light irradiation and substantial inertia in the dark at test concentrations, see Table 4.
The activity of compound IIIb encapsulated in cubosomes as a photosensitising agent in photodynamic therapy was evaluated on an in vitro tumour model: squamous cell carcinoma of the epidermis (A431), following the same protocol as compound IIIa and IIIb as such. […] However, the incorporation into a delivery system can bring numerous benefits, including increased distribution in the tumour after in vivo administration, increased stability and solubility, and improved crossing of biological barriers.

[2] = Singlet oxygen quantum yield by direct 1O2 phosphorescence at 1270 nm; assay type: physicochemical; conditions: acetonitrile; direct phosphorescence signal of 1O2 at 1270 nm; reference [Ru(phen)3Cl2]
Procedure: The capacity of complexes IIIa-c to efficiently generate singlet oxygen (^1O2) upon irradiation with light is a key factor in the evaluation of their potential as photosensitising agents for applications in photodynamic therapy. In this connection, the singlet oxygen quantum yields of complexes IIIa-c were determined by means of direct phosphorescence signal of ^1O2 at 1270 nm generated by irradiation of acetonitrile solutions of the complexes and using dichlorotris(1,10-phenanthroline)ruthenium (II) chloride ([Ru(phen)3Cl2]) as a standard reference. A Horiba FluoroMax Plus spectrofluorometer was used for these measurements.

[3] = tested on: glioblastoma multiforme (U87MG); assay: In-vitro photo-cytotoxicity, MTT assay, U87MG; assay type: cell-based; conditions: 1 h incubation, MTT after 24 h, read-out: IC50 (maximum response set to zero)
Procedure: as §1

[4] = DHN assay (indirect UV-visible probe for 1O2); assay type: physicochemical; conditions: acetonitrile, LED 400-500 nm; for kobs, rate constant of the DHN photo-oxidation process: [DHN]=330 μM, [Ru]=10 μM; for Φ1O2 (b) singlet oxygen quantum yield: indirect UV-visible measurements with DHN probe, standard [Ru(phen)3]Cl2
Procedure: A confirmation of the production of singlet oxygen (^1O2) with such a high quantum yields by the three IIIa-c molecular systems was obtained using 1,5-dihydroxynaphthalene (DHN) as an indirect chemical probe for ^1O2 and [Ru(phen)3]Cl2 as a commercial standard. In the DHN assay, the probe is selectively and quantitatively oxidised in the presence of ^1O2 to give the corresponding photo-oxidation product 5-hydroxy-1,4-naphthalenedione (Juglone). The production of ^1O2 was assessed by monitoring the decrease in the DHN absorption band at λ=297 nm and the corresponding increase in the Juglone band at λ=427 nm. […] On this basis, the quantum yield of formation of ^1O2 can be obtained via the equation
where φΔ are the quantum yields of ^1O2 production from the photosensitising agents, k are the rate constants obtained from the DHN assays, labs represents the absolute value for the integration of the absorption of the photosensitising agents in the spectral emission region of the LED lamp (400 nm to 500 nm), and the subscript ST indicates the commercial standard [Ru(phen)3]Cl2.

[5] = tested on: Methastatic Lung Adenocarcinoma (Calu-3); assay: In-vitro photo-cytotoxicity, MTT assay, Calu-3; assay type: cell-based; conditions: read-out: IC50 (maximum response set to zero)
Procedure: The activity of compound IIIa as a photosensitising agent in photodynamic therapy was evaluated on two in-vitro tumour models: squamous cell carcinoma of the epidermis (A431) and glioblastoma multiforme (U87MG). Cells cultured on 96-well plates were treated with increasing concentrations of IIIa dispersed in the culture medium for one hour. At the end of the incubation, the medium was replaced, and the cells were exposed to LED light (λmax 462 nm) for 30 minutes, or were left in the dark during the same time. At the end of the 30 minutes, the cells were placed back and maintained in the incubator for 24 hours before measuring the metabolic activity by MTT assay. Six replicates were used for each condition, and cell viability of 100% was calculated from the response of untreated cells not exposed to LED light. […]
The activity of compound IIIc as a photosensitising agent in photodynamic therapy was evaluated on an in-vitro tumour model, Methastatic Lung Adenocarcinoma (Calu-3), following the same protocol as compounds IIIa and IIIb. […]
The activity of compound IIIc encapsulated in cubosomes as a photosensitising agent in photodynamic therapy was evaluated on an in vitro tumour model: Methastatic Lung Adenocarcinoma (Calu-3), following the same protocol as compound IIIa and IIIb. […]

[6] = value of the commercial standard used for the calculation; cited from earlier work
[7] = 30′ LED light exposure (λmax 462 nm)

Compound | IC50 [1, 7] [nM] | IC50 ([1]; in the dark) [nM] | Φ1O2 (a) singlet oxygen quantum yield [2] | IC50 [3, 7] [nM] | IC50 ([3]; in the dark) [nM] | kobs, rate constant of the DHN photo-oxidation process [4] | Φ1O2 (b) singlet oxygen quantum yield [4] | IC50 ([5]; 30′ LED light exposure) [nM] | IC50 ([5]; in the dark) [nM] | standard quantum yield of 1O2 production [6]
Cc1ccnc(-c2cc(C)ccn2)c1.F[P-](F)(F)(F)(F)F.F[P-](F)(F)(F)(F)F.[Ru+2].c1ccc2cc3nc4c5cccnc5c5ncccc5c4nc3cc2c1.c1ccc2cc3nc4c5cccnc5c5ncccc5c4nc3cc2c1 [Complex IIIa] | 25.3 | > 40000 | 0.54 ± 0.06 | 164 | > 40000 | 1.85×10^−3 | 0.44 | – | – | –
O=C([O-])c1ccnc(-c2cc(C(=O)[O-])ccn2)c1.[Ru+2].c1ccc2cc3nc4c5cccnc5c5ncccc5c4nc3cc2c1.c1ccc2cc3nc4c5cccnc5c5ncccc5c4nc3cc2c1 [Complex IIIb, [Ru(4,4′-dicarboxylate-2,2′-bipyridine)(benzo[i]dipyrido[3,2-a:2′,3′-c]phenazine)2]] | 191 | > 40000 | 0.50 ± 0.07 | – | – | 2.71×10^−3 | 0.47 | – | – | –
F[P-](F)(F)(F)(F)F.F[P-](F)(F)(F)(F)F.O=C(c1ccnc(-c2cc(C(=O)N3CCOCC3)ccn2)c1)N1CCOCC1.[Ru+2].c1ccc2cc3nc4c5cccnc5c5ncccc5c4nc3cc2c1.c1ccc2cc3nc4c5cccnc5c5ncccc5c4nc3cc2c1 [Complex IIIc] | – | – | 0.54 ± 0.6 | – | – | 1.83×10^−3 | 0.42 | 63.9 | > 40000 | –
[Cl][Ru][Cl].c1cnc2c(c1)ccc1cccnc12.c1cnc2c(c1)ccc1cccnc12.c1cnc2c(c1)ccc1cccnc12 [[Ru(phen)3]Cl2, dichlorotris(1,10-phenanthroline)ruthenium (II) chloride, reference compound] | – | – | – | – | – | 9.41×10^−4 | – | – | – | 0.38
